Measured values reported in patent US6096744A, “Sulfonamide derivatives of substituted quinoxaline 2,3-diones as glutamate receptor antagonists” (Warner-Lambert Company, priority 1998, dated 2000).
pIC50: −log10 of the molar value.

Assays:
AMPA receptors = assay: AMPA receptor binding affinity (Honore et al.)
[1] = biological target: kainate site (non-NMDA receptor); assay: kainate site (non-NMDA receptor) binding affinity (London and Coyle)
[2] = biological target: T1, glycine site of the NMDA receptor (Rattus norvegicus, UniProt P35439); assay: binding affinity for the glycine site of the NMDA receptor (Jones et al.)
T1 construct: from tissue

pIC50 (AMPA receptors) | IC50 KA [1] | pIC50 [2] | Compound
6.68 | 0.29 µM | 7.00 | Cc1c([N+](=O)[O-])cc2[nH]c(=O)c(=O)[nH]c2c1CN(C)S(C)(=O)=O [Compound 1, N-Methyl-N-(6-methyl-7-nitro-2,3-dioxo-1,2,3,4-tetrahydro-quinoxalin-5-ylmethyl)-methanesulfonamide]
6.25 | 2.63 µM | < 6.00 | Cc1ccc(S(=O)(=O)N(C)Cc2c(C)c([N+](=O)[O-])cc3[nH]c(=O)c(=O)[nH]c23)cc1 [Compound 2, 4,N-Dimethyl-N-(6-methyl-7-nitro-2,3-dioxo-1,2,3,4-tetrahydro-quinoxalin-5-ylmethyl)-benzenesulfonamide]
5.59 | 4.77 µM | < 6.00 | Cc1c([N+](=O)[O-])cc2[nH]c(=O)c(=O)[nH]c2c1CN(C)S(=O)(=O)c1c(C(C)C)cc(C(C)C)cc1C(C)C [Compound 3, 2,4,6-Triisopropyl-N-methyl-N-(6-methyl-7-nitro-2,3-dioxo-1,2,3,4-tetrahydro-quinoxalin-5-ylmethyl)-benzenesulfonamide]
4.74 | 26.0 µM | < 6.00 | Cc1c([N+](=O)[O-])cc2[nH]c(=O)c(=O)[nH]c2c1CN(C)S(=O)(=O)c1ccc2ccccc2c1 [Compound 4, Naphthalene-2-sulfonic acid methyl-(6-methyl-7-nitro-2,3-dioxo-1,2,3,4-tetrahydro-quinoxalin-5-ylmethyl)-amide]
